Literature values as cited in US20140073698A1 (Aventis Pharma S.A., priority 2011, published 2014).

Settings: @pH=1; simulation input

Reference Log D: 3.16
Structure (SMILES): CC(C(=O)O)c1cccc(C(=O)c2ccccc2)c1 (stereo not shown) [Ketoprofen, 2-(3-benzoylphenyl)propionic acid]
